Here are results for seven compounds from ChEMBL document CHEMBL3045969, “Synthesis and evaluation of some new 4-aminopyridine derivatives as a potent antiamnesic and cognition enhancing drugs” (Med Chem Res, 2012).

In series [1] the test system is Rattus norvegicus. The experiment in a line: Cognition enhancing activity in Charles Foster albino Rattus norvegicus (rat) assessed as transfer latency time at 10 mg/kg, po qd for 7 days measured 1 hr post last dose on day 7 by elevated plus maze test. The series is classed as functional.
The test system of series [2] is Rattus norvegicus. The experiment in a line: Cognition enhancing activity in Charles Foster albino Rattus norvegicus (rat) assessed as transfer latency time at 5 mg/kg, po qd for 8 days measured 1 hr post last dose on day 8 by elevated plus maze test. Type of series: functional.
In series [3] the test system is Rattus norvegicus. Description: Inhibition of AChE in Charles Foster albino Rattus norvegicus (rat) assessed as hydrolysis of acetylthiocholine iodide per mg of protein in hippocampus at 5 mg/kg, po qd for 7 days measured 1 hr post last dose on day 7 by spectrophotometry (reference value: […]/mg protein). Type of series: functional.
Series [4] deals with Rattus norvegicus. The experiment in a line: Cognition enhancing activity in Charles Foster albino Rattus norvegicus (rat) assessed as transfer latency time at 5 mg/kg, po qd for 7 days measured 1 hr post last dose on day 7 by elevated plus maze test. Type of series: functional.
Series [5] has as its system Rattus norvegicus. The experiment in a line: Acute toxicity in Charles Foster albino Rattus norvegicus (rat) assessed as mortality at >35 mg/kg of body weight, po measured up to 24 hr. The series is classed as organism-based. To be noted: in vivo.
In series [6] the test system is Rattus norvegicus. Description: Antiamnesic activity in scopolamine-induced amnesia Charles Foster albino Rattus norvegicus (rat) model assessed as transfer latency time at 5 mg/kg, po qd for 7 days measured 1 hr post last dose on day 7 by elevated plus maze test. Type of series: functional.
Series [7] concerns Rattus norvegicus. The experiment in a line: Antiamnesic activity in scopolamine-induced amnesia Charles Foster albino Rattus norvegicus (rat) model assessed as transfer latency time at 10 mg/kg, po qd for 8 days measured 1 hr post last dose on day 8 by elevated plus maze test. Type of series: functional.
Series [8] has as its system Rattus norvegicus. Description: Antiamnesic activity in scopolamine-induced amnesia Charles Foster albino Rattus norvegicus (rat) model assessed as transfer latency time at 5 mg/kg, po qd for 8 days measured 1 hr post last dose on day 8 by elevated plus maze test. The series is classed as functional.
The test system of series [9] is Rattus norvegicus. Description: Antiamnesic activity in po dosed scopolamine-induced amnesia Charles Foster albino Rattus norvegicus (rat) model assessed as transfer latency time administered once daily for 8 days measured 1 hr post last dose on day 8 by elevated plus maze test. The series is classed as functional, organism-based.
The test system of series [10] is Rattus norvegicus. Description: Inhibition of AChE in Charles Foster albino Rattus norvegicus (rat) assessed as hydrolysis of acetylthiocholine iodide per mg of protein in hypothalamus at 5 mg/kg, po qd for 7 days measured 1 hr post last dose on day 7 by spectrophotometry (reference value: […]/mg protein). The series is classed as functional.

Series [11] relates to Rattus norvegicus. Description: Inhibition of AChE in Charles Foster albino Rattus norvegicus (rat) assessed as hydrolysis of acetylthiocholine iodide per mg of protein in prefrontal cortex at 10 mg/kg, po qd for 7 days measured 1 hr post last dose on day 7 by spectrophotometry (reference value: […]/mg protein). Type of series: functional.
The test system of series [12] is Rattus norvegicus. The experiment in a line: Antiamnesic activity in scopolamine-induced amnesia Charles Foster albino Rattus norvegicus (rat) model assessed as transfer latency time at 10 mg/kg, po qd for 7 days measured 1 hr post last dose on day 7 by elevated plus maze test. Type of series: functional.
Series [13] deals with Rattus norvegicus. The experiment in a line: Inhibition of AChE in po dosed Charles Foster albino Rattus norvegicus (rat) assessed as hydrolysis of acetylthiocholine iodide per mg of protein in prefrontal cortex administered qd for 7 days measured 1 hr post last dose on day 7 by spectrophotometry (reference value: 45.83 +/-0.94 moles/min/mg protein). The series is classed as functional, organism-based.

Series [14] relates to Rattus norvegicus. Description: Inhibition of AChE in po dosed Charles Foster albino Rattus norvegicus (rat) assessed as hydrolysis of acetylthiocholine iodide per mg of protein in hippocampus administered po qd for 7 days measured 1 hr post last dose on day 7 by spectrophotometry (reference value: […]/mg protein). Type of series: functional, organism-based.

The subject of series [15] is Rattus norvegicus. The experiment in a line: Inhibition of AChE in Charles Foster albino Rattus norvegicus (rat) assessed as hydrolysis of acetylthiocholine iodide per mg of protein in hippocampus at 10 mg/kg, po qd for 7 days measured 1 hr post last dose on day 7 by spectrophotometry (reference value: […]/mg protein). The series is classed as functional.

Series [16] concerns Rattus norvegicus. The experiment in a line: Inhibition of AChE in po dosed Charles Foster albino Rattus norvegicus (rat) assessed as hydrolysis of acetylthiocholine iodide per mg of protein in hypothalamus administered qd for 7 days measured 1 hr post last dose on day 7 by spectrophotometry (reference value: […]/mg protein). The series is classed as functional, organism-based.

Series [17] concerns Rattus norvegicus. Description: Cognition enhancing activity in Charles Foster albino Rattus norvegicus (rat) assessed as transfer latency time at 10 mg/kg, po qd for 8 days measured 1 hr post last dose on day 8 by elevated plus maze test. Type of series: functional.
The test system of series [18] is Rattus norvegicus. Description: Inhibition of AChE in Charles Foster albino Rattus norvegicus (rat) assessed as hydrolysis of acetylthiocholine iodide per mg of protein in hypothalamus at 10 mg/kg, po qd for 7 days measured 1 hr post last dose on day 7 by spectrophotometry (reference value: […]/mg protein). Type of series: functional.
Series [19] has as its system Rattus norvegicus. The experiment in a line: Inhibition of AChE in Charles Foster albino Rattus norvegicus (rat) assessed as hydrolysis of acetylthiocholine iodide per mg of protein in prefrontal cortex at 5 mg/kg, po qd for 7 days measured 1 hr post last dose on day 7 by spectrophotometry (reference value: […]/mg protein). The series is classed as functional.

On to `C(=N/c1ccncc1)/c1ccccc1`, for which the Time in series [1] turned out to be 52.5 s; in [2], 51.83 s; in series [4], 59.67 s; in series [6], 53.83 s; in [7], 42.67 s; in series [8], 51.5 s. In addition, the Time in series [12] is recorded as 48.83 s; in series [17], 47.17 s. The Activity in series [3] is 43.83 nmol/min; in series [5], “Non-toxic”; in [9], “Dose-dependent effect”; in series [10], 29.33 nmol/min; in [11] it was 33.83 nmol/min; in series [15], 36.83 nmol/min. The Activity in series [18] stood at 35.5 nmol/min; in series [19], 39 nmol/min. The inhibition entry in series [13], in [14] and in [16] was “Dose-dependent effect” each time.
`COc1ccc(/C=N\c2ccncc2)cc1OC`: the Time in series [1] was 53 s; in series [2], 50.33 s; in [4], 58 s; in series [6] it was 53.83 s; in series [7], 42.5 s; in [8] it was 50.67 s. Also, the Time in series [12] is on record as 48.5 s; in series [17] it was 47.5 s. The Activity is 41.17 nmol/min in series [3]; “Non-toxic” in series [5]; “Dose-dependent effect” in series [9]; 35.5 nmol/min in series [10]; 33.17 nmol/min in series [11]; 35.83 nmol/min in series [15]. The Activity is 30.5 nmol/min in [18] and 36.5 nmol/min in series [19]. Further, the inhibition entry in [13], in [14] and in series [16] was “Dose-dependent effect” in each case.
Consider `c1ccc(C(=Nc2ccncc2)c2ccccc2)cc1`, for which the Time in series [1] is reported as 46.83 s; in [2] it was 44 s; in [4], 49.17 s; in [6], 46.83 s; in [7] it was 41.17 s; in [8], 41.83 s. The Time came to 45.67 s in series [12] and 40.17 s in series [17]. Further, the Activity was 42.17 nmol/min in [3]; “Non-toxic” in series [5]; “Dose-dependent effect” in series [9]; 34.67 nmol/min in series [10]; 32.83 nmol/min in series [11]; 37.5 nmol/min in series [15]. In addition, the Activity is 29.67 nmol/min in series [18] and 37 nmol/min in series [19]. Besides, the inhibition entry in series [13], in series [14] and in series [16] was “Dose-dependent effect” throughout.
`C/C(=N/c1ccncc1)c1ccc(O)cc1`: the Time was found to be 50.83 s in series [1]; 56.17 s in series [2]; 59.83 s in [4]; 53.17 s in series [6]; 41.67 s in series [7]; 50.67 s in series [8]. For the same compound, the Time is recorded as 47 s in series [12] and 46.83 s in series [17]. In addition, the Activity in series [3] was 40.5 nmol/min; in [5], “Non-toxic”; in series [9] it was “Dose-dependent effect”; in series [10] it was 35.17 nmol/min; in series [11], 33 nmol/min; in series [15] it was 36.5 nmol/min. For the same compound, the Activity in series [18] turned out to be 29.67 nmol/min; in series [19], 39.33 nmol/min. In addition, the inhibition result in series [13], in series [14] and in [16] was “Dose-dependent effect” in each case.
On to `Oc1ccc(/C=N\c2ccncc2)c(O)c1`, for which the Time worked out at 52.5 s in [1]; 51.17 s in series [2]; 60.33 s in series [4]; 51.67 s in series [6]; 43 s in [7]; 51.67 s in series [8]. For the same compound, the Time in series [12] is recorded as 46.5 s; in series [17] it was 48.67 s. For the same compound, the Activity in series [3] is 42.83 nmol/min; in series [5], “Non-toxic”; in series [9] it was “Dose-dependent effect”; in series [10] it was 34.5 nmol/min; in series [11] it was 30.5 nmol/min; in [15], 34.83 nmol/min. Besides, the Activity turned out to be 30 nmol/min in [18] and 41 nmol/min in series [19]. Besides, the inhibition entry in series [13], in series [14] and in [16] was “Dose-dependent effect” throughout.
In the case of `Oc1ccccc1/C=N\c1ccncc1`, the Time in [1] turned out to be 52.17 s; in [2], 50.17 s; in series [4] it was 59.83 s; in [6], 53.5 s; in series [7], 42.5 s; in series [8], 50.17 s. The values for the Time in [12] and in series [17] were 48.17 s and 42.5 s, respectively. For the same compound, the Activity in series [3] was 41.83 nmol/min; in [5], “Non-toxic”; in [9], “Dose-dependent effect”; in series [10], 34.33 nmol/min; in [11] it was 33 nmol/min; in series [15], 36.83 nmol/min. In addition, the Activity in series [18] was 30.5 nmol/min; in [19] it was 37.5 nmol/min. Besides, the inhibition result in series [13], in series [14] and in series [16] was “Dose-dependent effect” throughout.
As to `COc1ccc(/C=N\c2ccncc2)cc1`, the Time came to 52.67 s in series [1]; 49.5 s in series [2]; 57.83 s in series [4]; 52 s in series [6]; 43.17 s in series [7]; 50.83 s in series [8]. Further, the figures for the Time in [12] and in [17] were 48.67 s and 46.33 s, respectively. Moreover, the Activity in series [3] was 41.5 nmol/min; in [5], “Non-toxic”; in [9], “Dose-dependent effect”; in [10] it was 35.67 nmol/min; in series [11], 31 nmol/min; in [15] it was 36.5 nmol/min. The Activity in series [18] came out at 30.83 nmol/min; in [19], 36 nmol/min. Also, the inhibition entry in [13], in series [14] and in series [16] was “Dose-dependent effect” in each case.
